Here are results for 1 substance from patent US11191811B2, “Osteocalcin as a treatment for frailty associated with aging” (THE TRUSTEES OF COLUMBIA UNIVERSITY IN THE CITY OF NEW YORK, priority 2014, dated 2021).

Common to all, as to type: cell-based, mouse
Conditions in all cases: Ocn 10 ng/ml

Assay [1] deals with WT myotubes. Kind of assay: Western blot of Akt phosphorylation (Ser473) in cultured myotubes. The method, then: FIG. 26. Osteocalcin signaling in myofibers promotes glucose uptake. (A) VO2, (B) VO2 max and (C) RER in female Gprc6af/f and Gprc6aMck−/− mice during a gradual speed increase test. (D-E) Uptake of ^3H-2-deoxyglucose (^3H-2-DG) in WT and Gprc6a−/− myotubes treated with vehicle or Ocn (dose indicated in panel D, 10 ng/ml in panel E). (F) Uptake of ^3H-2-DG in glycolytic (Gly—white quadriceps) and oxidative (Ox—red quadriceps) muscles after a single bout of exercise in Gprc6af/f and Gprc6aMck^−/− mice (n=4 per group). (G) Blood glucose levels in Gprc6af/f and Gprc6aMck−/− mice after running on a treadmill until exhaustion (n=4 per group). (H) Blood glucose levels in Gprc6af/f and Gprc6aHsa−/− mice after running on a treadmill until exhaustion (n=4 per group). (I) Western blot analyses of Akt phosphorylation (Ser473) in WT myotubes treated with Ocn (10 ng/ml) and in muscles of WT mice injected with Ocn (500 ng/g) after a single bout of exercise. (J) Western blot analyses of Akt phosphorylation (Ser473) in Gprc6af/f and Gprc6aMck−/− muscles after a single bout of exercise. (K) Glycogen content and glycogen breakdown in Gprc6af/f and Gprc6aMck−/− muscles at rest and after exercise.
Culture of skeletal muscle myoblasts from 7 day-old mice was performed as described (Gharaibeh et al., 2008, Nature Protocols 3:1501-1509). […]
(A western blot detects proteins with antibodies after separation by electrophoresis.)

The subject of assay [2] is Gprc6a−/− myotubes. Kind of assay: cAMP accumulation in myotubes. Here is the method:
(§1) FIG. 25. Osteocalcin signaling in myofibers is necessary for muscle function during exercise. (A) Serum total osteocalcin (Ocn) and insulin (Ins) levels measured in mice at rest or after a single bout of exercise (40 min, 30 cm/s running on a treadmill) (n=7 per group). (B) Serum uncarboxylated (uncarb)-Ocn levels measured in mice at rest and 0, 1, 2 and 4 hours after a single bout of exercise (40 min, 30 cm/s running on a treadmill) (n=7 per group). (C) Serum CTX levels in mice at rest and after a single bout of exercise (n=7 per group). (D) Performance during endurance exercise of 3 month-old female Ocn-deficient and WT littermates (n=8-10 per group). (E) Performance during endurance exercise of 3 month-old Ocn f/f and OcnOsb−/− littermates (n=3-5 per group). (F) Performance during endurance exercise of 3 month-old female Gprc6a-deficient and WT littermates (n=8-10 per group). (G) Gprc6a expression in various tissues. (H) Gprc6a expression in EDL and soleus muscles (n=3). (I) In situ hybridization analysis of Gprc6a expression in soleus muscle. (J) Gprc6a expression in WT and Ocn−/− muscles (n=6 per group). […]
(§2) Serum osteocalcin, PINP, CTX, and insulin levels were measured using ELISA assays. Blood glucose level was measured using an Accu-Check glucometer. Urine 3-MHT was measured as previously described (Aranibar et al., 2011, Anal. Biochem. 410:84-91). […]
Background: cAMP levels reflect the balance of adenylyl cyclase and phosphodiesterase activity.

The subject of assay [3] is WT myotubes. Kind of assay: cAMP accumulation in myotubes. Here is the method:
as §1, §2

As for “uncarboxylated osteocalcin: Recombinant uncarboxylated mouse osteocalcin, bacterially produced, purified on glutathione beads and cleaved from the GST subunit by thrombin (YLGASVPSPDPLEPTREQCELNPACDELSDQYGLKTAYKRIYGITI)”, the “phosphorylation of Akt in cultured myotubes” value in assay [1] is on record as “induced”. Moreover, the cAMP production entry in assay [2] was “did not increase”; in assay [3] it was “increase”.
